Legend:
[1] = test system: Hepatitis C virus; test: Antiviral activity against Hepatitis C virus genotype 1b in Huh-luc/neo-ET replicon cells after 48 hrs by replicon-based luciferase assay; type: functional, organism-based, Hepacivirus hominis
[2] = test system: Hepatitis C virus; test: Antiviral activity against Hepatitis C virus genotype 1a in Huh-luc/neo-ET replicon cells after 48 hrs by replicon-based luciferase assay; type: functional, organism-based, Hepacivirus hominis; details: subtype 1a

EC50 [1] [nM]	EC50 [2] [nM]	SMILES
200	501	COC(=O)N[C@H](C(=O)N1CCC[C@H]1c1ncc(-c2ccccc2)[nH]1)C(C)C
0.00398	0.0631	CC[C@H](NC(=O)OC)C(=O)N1CC2(C[C@H]1c1ncc(-c3ccc(-c4ccc(-c5cnc([C@@H]6CCCN6C(=O)[C@@H](NC(=O)OC)C(C)C)[nH]5)cc4)cc3)[nH]1)SCCS2
0.02	0.0794	COC(=O)N[C@@H](C)C(=O)N1CC2(C[C@H]1c1ncc(-c3ccc(-c4ccc(-c5cnc([C@@H]6CCCN6C(=O)[C@@H](NC(=O)OC)C(C)C)[nH]5)cc4)cc3)[nH]1)OCCCO2
0.0126	2	COC(=O)N[C@@H](CC(C)C)C(=O)N1C(c2ncc(-c3ccc(-c4ccc(-c5cnc([C@@H]6CCCN6C(=O)[C@@H](NC(=O)OC)C(C)C)[nH]5)cc4)cc3)[nH]2)CCC12CCC(F)(F)CC2 (some centres not stated)
0.00631	1.58	CN(C)[C@@H](C(=O)N1CCC[C@H]1c1ncc(-c2ccc(-c3ccc(-c4cnc([C@@H]5COC6(CCOCC6)N5C(=O)OCc5ccccc5)[nH]4)cc3)cc2)[nH]1)c1ccccc1
0.1	25.1	COC(=O)N[C@H](C(=O)N1CCC[C@H]1c1ncc(-c2ccc(-c3ccc(-c4cnc(C5CCC6(CCC(F)(F)CC6)N5C(C)=O)[nH]4)cc3)cc2)[nH]1)C(C)C (some centres not stated)
0.316	12.6	COC(=O)N[C@H](C(=O)N1CCC[C@H]1c1ncc(-c2ccc(-c3ccc(-c4cnc(C5CCC6(CCS(=O)(=O)CC6)N5C(=O)[C@@H](NC(=O)OC)C(C)C)[nH]4)cc3)cc2)[nH]1)C(C)C (some centres not stated)
0.0158	1	CC[C@H](NC(=O)OC)C(=O)N1C(c2ncc(-c3ccc(-c4ccc(-c5cnc([C@@H]6CCCN6C(=O)[C@@H](NC(=O)OC)C(C)C)[nH]5)cc4)cc3)[nH]2)CCC12CCC(F)(F)CC2 (some centres not stated)
0.00398	0.1	COC(=O)N[C@H](C(=O)N1CC2(CC1c1ncc(-c3ccc(-c4ccc(-c5cnc([C@@H]6CCCN6C(=O)[C@@H](NC(=O)OC)C(C)C)[nH]5)cc4)cc3)[nH]1)CC(F)(F)C2)C(C)C (mixture of isomers)
0.0158	0.794	COC(=O)N[C@H](C(=O)N1CC2(CCN(C(=O)OC)CC2)CC1c1ncc(-c2ccc(-c3ccc(-c4cnc([C@@H]5CCCN5C(=O)[C@@H](NC(=O)OC)C(C)C)[nH]4)cc3)cc2)[nH]1)C(C)C (mixture of isomers)
0.0158	0.0631	COC(=O)N[C@H](C(=O)N1CC2(CCOCC2)CC1c1ncc(-c2ccc(-c3ccc(-c4cnc([C@@H]5CCCN5C(=O)[C@@H](NC(=O)OC)C(C)C)[nH]4)cc3)cc2)[nH]1)C(C)C (mixture of isomers)
0.01	1	COC(=O)N[C@H](C(=O)N1CC2(CC1c1ncc(-c3ccc(-c4ccc(-c5cnc([C@@H]6CCCN6C(=O)[C@@H](NC(=O)OC)C(C)C)[nH]5)cc4)cc3)[nH]1)CN(C(=O)OC(C)(C)C)C2)C(C)C (mixture of isomers)
0.0501	2	COC(=O)N[C@H](C(=O)N1CC2(CC1c1ncc(-c3ccc(-c4ccc(-c5cnc([C@@H]6CCCN6C(=O)[C@@H](NC(=O)OC)C(C)C)[nH]5)cc4)cc3)[nH]1)CN(C(=O)OC)C2)C(C)C (mixture of isomers)
0.0398	0.398	COC(=O)N[C@H](C(=O)N1CC2(CCS(=O)(=O)CC2)CC1c1ncc(-c2ccc(-c3ccc(-c4cnc([C@@H]5CCCN5C(=O)[C@@H](NC(=O)OC)C(C)C)[nH]4)cc3)cc2)[nH]1)C(C)C (mixture of isomers)

The remaining lines, values behind:

SMILES	EC50 [1] [nM]	EC50 [2] [nM]
COC(=O)N[C@H](C(=O)N1CCC[C@H]1c1ncc(-c2ccc(-c3ccc(-c4cnc([C@@H]5CC6(CN5C(=O)[C@@H](NC(=O)OC)C(C)C)SCCS6)[nH]4)cc3)cc2)[nH]1)C(C)C	0.00398	0.0794
COC(=O)NCC(=O)N1CC2(C[C@H]1c1ncc(-c3ccc(-c4ccc(-c5cnc([C@@H]6CCCN6C(=O)[C@@H](NC(=O)OC)C(C)C)[nH]5)cc4)cc3)[nH]1)SCCS2	0.00501	0.631
COC(=O)N[C@H](C(=O)N1CCC[C@H]1c1ncc(-c2ccc(-c3ccc(-c4cnc([C@@H]5CC6(CN5C(=O)[C@@H](NC(=O)OC)C(C)C)OCCCO6)[nH]4)cc3)cc2)[nH]1)C(C)C	0.00794	0.0251
COC(=O)N[C@H](C(=O)N1CCC[C@H]1c1ncc(-c2ccc(-c3ccc(-c4cnc([C@@H]5CC6(CN5C(=O)[C@@H](NC(=O)OC)C(C)C)OCC(C)(C)CO6)[nH]4)cc3)cc2)[nH]1)C(C)C	0.00251	0.794
COC(=O)N[C@H](C(=O)N1CCC[C@H]1c1ncc(-c2ccc(-c3ccc(-c4cnc([C@@H]5CC6(CN5C(=O)[C@@H](NC(=O)OC)C(C)C)O[C@@H](C)C[C@H](C)O6)[nH]4)cc3)cc2)[nH]1)C(C)C (some centres not stated)	0.0126	2
COC(=O)N[C@@H](C)C(=O)N1C(c2ncc(-c3ccc(-c4ccc(-c5cnc([C@@H]6CCCN6C(=O)[C@@H](NC(=O)OC)C(C)C)[nH]5)cc4)cc3)[nH]2)CCC12CCC(F)(F)CC2 (some centres not stated)	0.01	0.631
O=C(NC1CC1)c1ccc(-c2csc(NC(=O)[C@@H]3CCCN3C(=O)OCc3ccccc3)n2)cc1	126	> 20000
O=C(Nc1cccnc1)c1ccc(-c2csc(NC(=O)[C@@H]3COC4(CCOCC4)N3C(=O)OCc3ccccc3)n2)cc1	0.251	> 20000
COC(=O)N[C@H](C(=O)N1CCC[C@H]1c1ncc(-c2ccc(-c3ccc(-c4cnc([C@@H]5COC6(CCOCC6)N5C(=O)OCc5ccccc5)[nH]4)cc3)cc2)[nH]1)C(C)C	0.002	1.58
CC(=O)N1CCC[C@H]1c1ncc(-c2ccc(-c3ccc(-c4cnc([C@@H]5CCCN5C(C)=O)[nH]4)cc3)cc2)[nH]1	126	794
COC(=O)N[C@H](C(=O)N1CCC[C@H]1c1ncc(-c2ccc(-c3ccc(-c4cnc(C5CCC6(CCOCC6)N5C(C)=O)[nH]4)cc3)cc2)[nH]1)C(C)C (some centres not stated)	0.0126	0.316
COC(=O)N[C@H](C(=O)N1CCC[C@H]1c1ncc(-c2ccc(-c3ccc(-c4cnc(C5CCC6(CCOCC6)N5C(=O)OCc5ccccc5)[nH]4)cc3)cc2)[nH]1)C(C)C (some centres not stated)	0.00631	6.31
COC(=O)N[C@H](C(=O)N1CCC[C@H]1c1ncc(-c2ccc(-c3ccc(-c4cnc(C5CCC6(CCOCC6)N5C(=O)[C@@H](NC(=O)OC)C(C)C)[nH]4)cc3)cc2)[nH]1)C(C)C (some centres not stated)	0.0631	1.58
COC(=O)N[C@H](C(=O)N1CCC[C@H]1c1ncc(-c2ccc(-c3ccc(-c4cnc(C5CCC6(CCC(F)(F)CC6)N5C(=O)[C@@H](NC(=O)OC)C(C)C)[nH]4)cc3)cc2)[nH]1)C(C)C (some centres not stated)	0.0158	1.58
O=C(Nc1nc(-c2ccccc2)cs1)[C@@H]1CCCN1C(=O)OCc1ccccc1	2510	> 20000
COC(=O)N[C@H](C(=O)N1CC2(CC1c1ncc(-c3ccc(-c4ccc(-c5cnc([C@@H]6CCCN6C(=O)[C@@H](NC(=O)OC)C(C)C)[nH]5)cc4)cc3)[nH]1)CN(S(C)(=O)=O)C2)C(C)C (mixture of isomers)	0.0501	1.26
COC(=O)N[C@H](C(=O)N1CC2(CCN(C(=O)OC(C)(C)C)CC2)CC1c1ncc(-c2ccc(-c3ccc(-c4cnc([C@@H]5CCCN5C(=O)[C@@H](NC(=O)OC)C(C)C)[nH]4)cc3)cc2)[nH]1)C(C)C (mixture of isomers)	0.0398	10
